In patent US8642594B2, “Substituted thieno[2,3-d]pyrimidines as HSP90 inhibitors” (Vernalis (R&D) Limited, priority 2003, dated 2014) one finds IC50 data, which are given here for 54 molecules.

Structures are written as SMILES. Bounds are passed on as bounds.

The target in one experiment is T1, Human full-length Hsp90 (Homo sapiens, UniProt P08238).
T1 construct: E. coli expressed human full-length HSP90 protein, purified >95%; made in house; host or cells: E. coli
T1 sequence (P08238 whole entry): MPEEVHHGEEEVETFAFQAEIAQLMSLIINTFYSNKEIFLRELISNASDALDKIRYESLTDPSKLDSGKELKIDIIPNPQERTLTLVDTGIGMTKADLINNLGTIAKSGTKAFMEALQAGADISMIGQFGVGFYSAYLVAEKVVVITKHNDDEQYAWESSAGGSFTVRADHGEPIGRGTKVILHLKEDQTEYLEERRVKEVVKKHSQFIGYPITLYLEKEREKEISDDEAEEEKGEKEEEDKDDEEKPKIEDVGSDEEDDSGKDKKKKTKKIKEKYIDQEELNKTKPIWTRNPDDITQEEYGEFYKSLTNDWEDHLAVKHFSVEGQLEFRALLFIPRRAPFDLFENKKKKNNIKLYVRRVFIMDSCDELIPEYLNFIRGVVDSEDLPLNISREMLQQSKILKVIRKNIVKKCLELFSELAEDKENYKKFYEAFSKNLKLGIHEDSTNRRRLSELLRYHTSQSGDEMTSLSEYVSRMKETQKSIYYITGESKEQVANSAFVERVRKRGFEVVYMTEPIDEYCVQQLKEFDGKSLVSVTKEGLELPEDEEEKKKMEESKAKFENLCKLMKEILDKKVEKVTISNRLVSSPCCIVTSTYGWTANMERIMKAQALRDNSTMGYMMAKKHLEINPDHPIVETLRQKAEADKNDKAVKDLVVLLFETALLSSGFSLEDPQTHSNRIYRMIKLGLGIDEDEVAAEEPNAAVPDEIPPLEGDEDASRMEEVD
Nature of the experiment: Fluorescence polarization assay (competitive binding to HSP90, probe RBT0045864-FAM).
Settings: not given
Summed up:
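Competitive fluorescence polarization: test compound displaces FAM-labelled probe RBT0045864-FAM (200 nM working solution) from HSP90 after equilibration, and anisotropy change is measured. Compounds serially diluted; BSA-containing buffer; standard compound as positive control; Z′ from zero and positive controls.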
On to `CCNC(=O)c1cc2c(-c3cc(OCCN4CCCC4)c(Cl)cc3Cl)nc(N)nc2s1` [Example 253], for which the IC50 – broadly, the concentration that gives 50% inhibition – is < 10 µM.
In the case of `CCNC(=O)c1cc2c(-c3ccc(Cl)cc3Cl)nc(N)nc2s1` [Example 98], the IC50 was < 10 µM.
As for `CCNC(=O)c1cc2c(-c3cc(OCC(N)=O)c(Cl)cc3Cl)nc(N)nc2s1` [Example 267], the IC50 was < 10 µM.
On the same count and under the same terms, the value for `CCNC(=O)c1cc2c(-c3cc(OCCNCCOC)c(Cl)cc3Cl)nc(N)nc2s1` [Example 247] was < 10 µM.

Staying with this experiment, now noted: fluorescence polarization assay, activity range; read-out: Hsp90 FP IC50.
On to `CCOC(=O)c1cc2c(-c3ccc(C(F)(F)F)cc3)nc(N)nc2s1` [Example 2, 2-Amino-4-(4-trifluoromethyl-phenyl)-thieno[2,3-d]pyrimidine-6-carboxylic acid ethyl ester], for which the IC50 is > 10 µM.
For `C[C@H](NC(=O)c1cc2c(-c3ccc(Cl)cc3Cl)nc(N)nc2s1)C(N)=O` [Example 160], the IC50 is < 10 µM.
As to `CCOC(=O)c1cc2c(NCCCN3CCCC3=O)nc(N)nc2s1` [Example 31], the IC50 was > 10 µM.
In the case of `CS(=O)(=O)c1ccc(CNC(=O)c2cc3c(-c4ccc(Cl)cc4Cl)nc(N)nc3s2)cc1` [Example 117], the IC50 is < 10 µM.
With `Nc1nc(-c2ccc(Cl)cc2Cl)c2cc(C(=O)NCc3ccc(F)cc3)sc2n1` [Example 120], the IC50 was < 10 µM.
Take `CCNC(=O)c1cc2c(-c3cc(OCc4ccccn4)c(Cl)cc3Cl)nc(N)nc2s1` [Example 261]: the IC50 is < 10 µM.
Take `CCOC(=O)c1cc2c(Oc3ccccc3)nc(N)nc2s1` [Example 19]: the half-maximal inhibitory concentration (IC50) was > 10 µM.
Turning to `CCNC(=O)c1cc2c(-c3cc(CNC4CC4)ccc3C)nc(N)nc2s1` [Example 203], the IC50 was < 10 µM.
Turning to `CC(C)C[C@H](NC(=O)c1cc2c(-c3ccc(Cl)cc3Cl)nc(N)nc2s1)C(N)=O` [Example 161], the concentration for half-maximal inhibition (IC50) is < 10 µM.
Still for that read-out and setting: the value for `CCOC(=O)c1cc2c(-c3cccc(Cl)c3)nc(N)nc2s1` [Example 14] was > 10 µM.
As for `CCCNC(=O)c1ccc(C)c(-c2nc(N)nc3sc(C(=O)NCc4ccccc4)cc23)c1` [Example 182], the IC50 is > 10 µM.
Still for that read-out and setting: the result for `CCNC(=O)c1cc2c(-c3cc(CNCCC(N)=O)ccc3C)nc(N)nc2s1` [Example 208] reads < 10 µM.
In the case of `CCC/C=C/c1nc(N)nc2sc(C(=O)OCC)cc12` [Example 292], the concentration for half-maximal inhibition (IC50) was > 10 µM.
For the molecule `CCNC(=O)c1cc2c(-c3cc(O)c(Cl)cc3Cl)nc(N)nc2s1` [Example 240], the IC50 is < 10 µM.
With `CCNC(=O)c1cc2c(-c3cc(CNCCc4cnc[nH]4)ccc3C)nc(N)nc2s1` [Example 204], the IC50 is < 10 µM.
Take `CCNC(=O)c1cc2c(-c3cc(C)c(C)cc3C)nc(N)nc2s1` [Example 150]: the IC50 was < 10 µM.
Consider `CCNC(=O)c1cc2c(-c3ccc(C#N)cc3Cl)nc(N)nc2s1` [Example 172], for which the IC50 is < 10 µM.
On to `Nc1nc(-c2ccc(Cl)cc2Cl)c2cc(C(=O)NC3CC3)sc2n1` [Example 155], for which the IC50 is < 10 µM.
For the molecule `CCOC(=O)c1cc2c(-c3cc(C)c(Br)cc3C)nc(N)nc2s1` [Example 105], the IC50 is < 10 µM.
Same read-out and setting: the result for `CCOC(=O)c1cc2c(Nc3ccc4cn[nH]c4c3)nc(N)nc2s1` [Example 39] reads > 10 µM; that for `Nc1nc(-c2ccccc2)c2cc(C(=O)NCCN3CCOCC3)sc2n1` [Example 46], > 10 µM; that for `CCOC(=O)c1cc2c(-c3ccc(OCC(=O)O)cc3C)nc(N)nc2s1` [Example 193], > 10 µM.
Still for that read-out and setting: the result for `CC(C)NC(=O)c1cc2c(-c3cc(OCCN4CCCC4)c(Cl)cc3Cl)nc(N)nc2s1` [Example 257] reads < 10 µM; that for `CCOC(=O)c1cc2c(-c3cccnc3)nc(N)nc2s1` [Example 94], > 10 µM.
For the molecule `CCOC(=O)c1cc2c(C(=O)c3ccc(OC)cc3)nc(N)nc2s1` [Example 297], the concentration for half-maximal inhibition (IC50) was < 10 µM.
The same measure, in the same setting: the value for `CN1CCCC1CCNC(=O)c1cc2c(-c3ccc(Cl)cc3Cl)nc(N)nc2s1` (stereo not shown) [Example 157] was < 10 µM; that for `CCNC(=O)c1cc2c(-c3cc(OCc4noc(-c5ccccc5OC)n4)c(Cl)cc3Cl)nc(N)nc2s1` [Example 269] was < 10 µM; that for `CSCC[C@H](NC(=O)c1cc2c(-c3ccc(Cl)cc3Cl)nc(N)nc2s1)C(N)=O` [Example 166] was < 10 µM.
The same measure, in the same setting: the value for `CCOC(=O)c1cc2c(NCCCc3c[nH]nc3C)nc(N)nc2s1` [Example 37] was > 10 µM; that for `CCOC(=O)c1cc2c(-c3c[nH]c4ccccc34)nc(N)nc2s1` [Example 294] was > 10 µM; that for `Nc1nc(-c2ccccc2)c2cc(C(=O)NCCCN3CCOCC3)sc2n1` [Example 66] was > 10 µM.
With `CCOC(=O)c1cc2c(C(=O)c3ccccc3Cl)nc(N)nc2s1` [Example 302], the IC50 was < 10 µM.
On to `CCOC(=O)c1cc2c(-c3ccc(C)cc3Cl)nc(N)nc2s1` [Example 79], for which the IC50 is < 10 µM.
Take `C=C(c1ccccc1)c1nc(N)nc2sc(C(=O)OCC)cc12` [Example 276]: the IC50 was < 10 µM.
On the same count and under the same terms, the value for `CCOC(=O)c1cc2c(-c3cc(C(=O)OC)ccc3C)nc(N)nc2s1` [Example 179] was < 10 µM.
For `Nc1nc(-c2ccc(Cl)cc2Cl)c2cc(C(=O)NCc3cccs3)sc2n1` [Example 124], the IC50 is < 10 µM.
Consider `Nc1nc(-c2ccc(Cl)cc2Cl)c2cc(C(=O)NCCc3ccccn3)sc2n1` [Example 156], for which the IC50 was < 10 µM.
In the case of `CCNC(=O)c1cc2c(-c3cc(CNCCc4cccs4)ccc3C)nc(N)nc2s1` [Example 214], the IC50 is < 10 µM.
On the same count and under the same terms, the value for `Nc1nc(-c2ccccc2)c2cc(C(=O)NC3CCCC3)sc2n1` [Example 62] was < 10 µM.
As for `CCOC(=O)c1cc2c(C(=O)c3ccccc3F)nc(N)nc2s1` [Example 301], the IC50 was < 10 µM.
Consider `CC(C)NC(=O)c1cc2c(-c3ccccc3)nc(N)nc2s1` [Example 56], for which the IC50 was < 10 µM.
In the case of `CCOC(=O)c1cc2c(NCCCc3c[nH]nc3O)nc(N)nc2s1` [Example 36], the IC50 was > 10 µM.
On to `CCOC(=O)c1cc2c(/C=C/c3cccc(OC)c3)nc(N)nc2s1` [Example 279], for which the IC50 is < 10 µM.
Regarding `CCCNC(=O)c1cc2c(-c3ccc(C)cc3C)nc(N)nc2s1` [Example 61], the IC50 is < 10 µM.
For `CCOC(=O)c1cc2c(NC(C)c3ccccc3)nc(N)nc2s1` (stereo not shown) [Example 26], the half-inhibitory concentration (IC50) was > 10 µM.
On the same count and under the same terms, the result for `CCOC(=O)c1cc2c(-c3ccc(OCCCO)cc3C)nc(N)nc2s1` [Example 194] reads < 10 µM; that for `CCOC(=O)c1cc2c(C(=O)c3cc(C)c(C)cc3C)nc(N)nc2s1` [Example 308], < 10 µM; that for `CNC(=O)c1cc2c(Nc3ccccc3)nc(N)nc2s1` [Example 64], > 10 µM.
Still for that read-out and setting: the result for `Cc1ccc(-c2nc(N)nc3sc(C(=O)N4CCOCC4)cc23)c(C)c1` [Example 96] reads > 10 µM.
Still for that read-out and setting: the value for `CC=Cc1nc(N)nc2sc(C(=O)OCC)cc12` [Example 291] was > 10 µM.

System in a further experiment: not listed separately
In words: Sulforhodamine B (SRB) growth inhibition / growth arrest assay. The format is cell-based. The settings on record: activity range. As for the experimental part:
A growth inhibition assay was also employed for the evaluation of candidate HSP90 inhibitors:
Assessment of Cytotoxicity by Sulforhodamine B (SRB) Assay: Calculation of 50% Inhibitory Concentration (IC50).
Day 1 • 1) Determine cell number by haemocytometer. • 2) Using an 8 channel multipipettor, add 160 μl of the cell suspension (3600 cells/well or 2×10^4 cells/ml) to each well of a 96-well microtitre plate. • 3) Incubate overnight at 37° C. in a CO2 incubator. Day 2 • 4) Stock solutions of drugs are prepared, and serial dilutions of each drug are performed in medium to give final concentrations in wells. • 5) Using a multipipettor, 40 μl of drug (at 5× final concentration) is added to quadruplicate wells. • 6) Control wells are at either side of the 96 well plates, where 40 μl of medium is added. • 7) Incubate plates in CO2 incubator for 4 days […]. […] Leave for 15 mins. • 12) Wash off unbound SRB stain with four washes of 1% acetic acid. • 13) Dry plates in incubator. • 14) Solubilise SRB using 100 μl of 10 mM Tris base and put plates on plate shaker for 5 mins. • 15) Determine absorbance at 540 nm using a plate reader. Calculate mean absorbance for quadruplicate wells and express as a percentage of value for control, untreated wells. • 16) Plot % absorbance values versus log drug concentration and determine the IC50.
In the case of `CCOC(=O)c1cc2c(-c3ccc(C(F)(F)F)cc3)nc(N)nc2s1` [Example 2, 2-Amino-4-(4-trifluoromethyl-phenyl)-thieno[2,3-d]pyrimidine-6-carboxylic acid ethyl ester], the IC50 was < 50 µM.
